Assay results: patent US6241963A, “Dopamine and serotonin transporter ligands and imaging agents” (priority 1996, dated 2001)
Values joined by “and” are separate entries in the source; they are usually repeats but may differ in a detail not shown here. Equal values may be shown once. “Also recorded” adds a separate entry of the source. Read-outs that look alike come from different tables or passages of the source.

Tests used:
[1] = format: in vivo, Male Sprague-Dawley rats; conditions: rats, iv
Experimental: Male Sprague-Dawley rats (225-300 g) allowed free access to food and water were used for in vivo biodistribution studies. Kung, 1984, supra; Kung, 1985, supra. While under ether anesthesia, 0.2 mL of a saline solution containing 1.19a, 1.19b, 1.20a, 1.20b or 1.21 (50-100 μCi) was injected directly into the femoral vein of rats, and the rats were sacrificed by cardiac excision at various time points post-injection. The organs of interest were removed and weighed, and the radioactivity was counted with an automatic gamma counter (Packard 5000). The percentage dose per organ was calculated by a comparison of the tissue counts to suitably diluted aliquots of the injected material. Total activities of blood and muscle were calculated under the assumption that they were 7% and 40% of the total body weight, respectively.
(§1) The major criteria for determining the potential usefulness of in vivo dopamine transporter imaging agents are based on an animal biodistribution study. In this case, rats were used as an animal model. After an intravenous injection of the Tc-99m labeled compounds, the values of initial brain uptake (% dose/whole organ) at 2 minutes post intravenous injection are used to measure the ability to penetrate the intact blood-brain barrier. Compounds displaying higher brain uptake are the better agents (minimum requirement >0.1% dose in brain). The second criteria is the specific uptake in the striatum region of the brain, where dopamine transporters are located. The uptake value (% dose/gram) of the striatum (ST) is divided by the background area, cerebellum (CB; essentially devoid of dopamine transporter); the ratio of ST/CB is an indicator for specific uptake (minimum requirement for ST/CB >1.5). Five structurally similar tropane derivatives were examined in this biological study. (Tables 1.1 to 1.4).
Male Sprague-Dawley rats (225-300 g) that were allowed free access to food and water were used for in vivo biodistribution studies. (Kung, 1984, supra; Kung, 1985, supra). While under halothane anesthesia, 0.2 mL of a saline solution containing 3.24 to 3.34 ([…]) was injected directly into the femoral vein of rats, and they were sacrificed by cardiac excision at various time points post-injection. The organs of interest were removed and weighed, and the radioactivity was counted with an automatic gamma counter (Packard 5000). The percentage dose per organ was calculated by a comparison of the tissue counts to suitably diluted aliquots of the injected material. Total activities of blood and muscle were calculated under the assumption that they were 7% and 40% of the total body weight, respectively.

dopamine transporters [2] = target: dopamine transporters (Rattus norvegicus, UniProt P23977); format: in vivo, Male Sprague-Dawley rats; conditions: rats, iv
Experimental: For dopamine transporter imaging agents, the target area of the brain is the striatum, where dopamine transporters are highly concentrated. The cerebellum region is suitable for use as the background region, because it has no dopamine transporters. The specific uptake is measured by the ratio of % dose/gram of striatum divided by % dose/gram of cerebellum (ST/CB ratio)--the higher the value, the better the specific uptake, and the more promising as a dopamine transporter imaging agent.
(§2) Regional brain distribution in rats was obtained after an injection of 1.19a, 1.19b, 1.20a, 1.20b or 1.21. Samples from different brain regions (cortex, striatum, hippocampus, and cerebellum) were dissected, weighed and counted, and the percentage dose per gram of sample was calculated by comparing the sample counts with the count of the diluted initial dose. The uptake ratio of each region was obtained by dividing the percentage dose per gram of that region by that of the cerebellum. For blocking studies, rats were injected with either β-CIT or haloperidol (iv, 1 mg/Kg) 5 min prior to injection of 1.19a. The rats were dissected and brain tissue samples were counted as described above. The specific uptake of the compound was expressed as ratio of ST/CB (% dose/g of striatum divided by the same of cerebellum).
as §1
as §2, with “3.24 to 3.34.” for “1.19a, 1.19b, 1.20a, 1.20b or 1.21.”, “3.25.” for “1.19a.”, “above.” for “above. The specific uptake of the compound was expressed as ratio of ST/CB (% dose/g of striatum divided by the same of cerebellum).”

dopamine transporters [3] = conditions: cited from earlier work; for Literature binding / localization / biodistribution, in words: in vivo; for Time for reaching optimal uptake ratio / equilibrium: basal ganglia versus frontal cortex
dopamine transporter = assay: Blocking studies in rats (pretreatment or co-injection with competing agent); format: in vivo, Male Sprague-Dawley rats; conditions: 1 mg/kg iv, 5 min before tracer, rats
Experimental: as §2
as §2, with “3.24 to 3.34.” for “1.19a, 1.19b, 1.20a, 1.20b or 1.21.”, “3.25.” for “1.19a.”, “above.” for “above. The specific uptake of the compound was expressed as ratio of ST/CB (% dose/g of striatum divided by the same of cerebellum).”

Chain of dopamine transporters (Rattus norvegicus, UniProt P23977) (P23977 whole entry): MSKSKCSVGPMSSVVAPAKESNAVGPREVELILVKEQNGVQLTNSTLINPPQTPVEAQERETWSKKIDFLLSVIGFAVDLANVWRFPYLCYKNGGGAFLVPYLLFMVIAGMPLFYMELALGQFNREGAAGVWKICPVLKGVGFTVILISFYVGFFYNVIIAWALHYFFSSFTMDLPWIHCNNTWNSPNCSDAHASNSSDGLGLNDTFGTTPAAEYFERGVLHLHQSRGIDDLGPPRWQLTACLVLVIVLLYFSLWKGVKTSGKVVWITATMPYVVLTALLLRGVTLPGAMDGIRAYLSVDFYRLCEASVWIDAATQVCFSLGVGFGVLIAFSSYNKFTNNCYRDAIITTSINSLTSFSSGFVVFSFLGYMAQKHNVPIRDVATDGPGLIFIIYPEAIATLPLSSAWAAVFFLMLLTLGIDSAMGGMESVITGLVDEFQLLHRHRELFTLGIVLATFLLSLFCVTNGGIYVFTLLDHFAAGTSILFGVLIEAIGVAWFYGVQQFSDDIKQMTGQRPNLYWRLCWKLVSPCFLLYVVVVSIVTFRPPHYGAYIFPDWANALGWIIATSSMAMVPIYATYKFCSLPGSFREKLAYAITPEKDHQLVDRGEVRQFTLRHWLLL

COC(=O)C1C(c2ccc(Cl)cc2)CC2CCC1N2CCC[N+]12CC[S][99Tc-]13(=[O])[S]CC[N]3CC2 (mixture of isomers) [Compound 2.6a]
Brain uptake, 2 min [1]: 0.27 ± 0.02 % dose/organ
Brain uptake, 30 min [1]: 0.11 ± 0.02 % dose/organ
Brain uptake and specific striatal uptake, in words (dopamine transporters [2]): displayed a significant brain uptake and specific uptake to the striatum area of the rat brain

CN1[C@H]2CC[C@@H]1[C@@H](C[N+]13CC[S][99Tc-]14(=[O])[S]CC[N]4CC3)[C@@H](c1ccc(Cl)cc1)C2 (single isomer, unassigned; peak a) [Peak A (1.19a)]
Blood uptake, 2 min [1]: 1.98 ± 0.19 % dose/organ
Brain uptake, 2 min [1]: 0.5 % dose/organ and 0.50 ± 0.06 % dose/organ
Heart uptake, 2 min [1]: 1.76 ± 0.09 % dose/organ
Kidney uptake, 2 min [1]: 5.47 ± 1.04 % dose/organ
Liver uptake, 2 min [1]: 9.55 ± 2.19 % dose/organ
Lung uptake, 2 min [1]: 9.68 ± 0.51 % dose/organ
Muscle uptake, 2 min [1]: 33.61 ± 4.31 % dose/organ
Skin uptake, 2 min [1]: 2.73 ± 0.39 % dose/organ
Spleen uptake, 2 min [1]: 0.27 ± 0.04 % dose/organ
Blood uptake, 60 min [1]: 1.00 ± 0.15 % dose/organ
Brain uptake, 60 min [1]: 0.21 ± 0.01 % dose/organ
Heart uptake, 60 min [1]: 0.21 ± 0.00 % dose/organ
Kidney uptake, 60 min [1]: 2.04 ± 0.21 % dose/organ
Liver uptake, 60 min [1]: 17.75 ± 1.81 % dose/organ
Lung uptake, 60 min [1]: 3.06 ± 0.28 % dose/organ
Muscle uptake, 60 min [1]: 14.98 ± 0.49 % dose/organ
Skin uptake, 60 min [1]: 3.56 ± 0.65 % dose/organ
Spleen uptake, 60 min [1]: 0.46 ± 0.18 % dose/organ
ST/CB ratio, 60 min (dopamine transporters [2]): 2.72

COC(=O)[C@H]1[C@@H](c2ccc(Cl)cc2)C[C@@H]2CC[C@H]1N2CCC[N+]12CC[S][99Tc-]13(=[O])[S]CC[N]3CC2 (single isomer, unassigned; peak a) [peak A of (2.6a)]
Blood uptake, 2 min [1]: 2.41 ± 0.33 % dose/organ
Brain uptake, 2 min [1]: 0.25 ± 0.04 % dose/organ
Heart uptake, 2 min [1]: 0.79 ± 0.03 % dose/organ
Kidney uptake, 2 min [1]: 2.97 ± 0.09 % dose/organ
Liver uptake, 2 min [1]: 14.29 ± 2.56 % dose/organ
Lung uptake, 2 min [1]: 15.63 ± 2.31 % dose/organ
Muscle uptake, 2 min [1]: 7.78 ± 0.32 % dose/organ
Skin uptake, 2 min [1]: 1.59 ± 0.68 % dose/organ
Spleen uptake, 2 min [1]: 0.42 ± 0.10 % dose/organ
Blood uptake, 30 min [1]: 1.16 ± 0.06 % dose/organ
Brain uptake, 30 min [1]: 0.13 ± 0.02 % dose/organ
Heart uptake, 30 min [1]: 0.22 ± 0.02 % dose/organ
Kidney uptake, 30 min [1]: 1.25 ± 0.11 % dose/organ
Liver uptake, 30 min [1]: 20.87 ± 2.23 % dose/organ
Lung uptake, 30 min [1]: 9.65 ± 1.37 % dose/organ
Muscle uptake, 30 min [1]: 10.41 ± 1.26 % dose/organ
Skin uptake, 30 min [1]: 5.69 ± 0.73 % dose/organ
Spleen uptake, 30 min [1]: 0.42 ± 0.05 % dose/organ

CN1[C@H]2CC[C@@H]1[C@@H](C[N+]13CC[S][99Tc-]14(=[O])[S]CC[N]4CC3)[C@@H](c1ccc(Cl)cc1)C2 (single isomer, unassigned; peak b) [peak B (1.19a)]
Blood uptake, 2 min [1]: 4.02 ± 0.20 % dose/organ
Brain uptake, 2 min [1]: 0.28 ± 0.01 % dose/organ
Heart uptake, 2 min [1]: 1.28 ± 0.15 % dose/organ
Kidney uptake, 2 min [1]: 4.47 ± 0.69 % dose/organ
Liver uptake, 2 min [1]: 9.07 ± 1.66 % dose/organ
Lung uptake, 2 min [1]: 6.00 ± 1.11 % dose/organ
Muscle uptake, 2 min [1]: 41.46 ± 11.33 % dose/organ
Skin uptake, 2 min [1]: 3.43 ± 0.62 % dose/organ
Spleen uptake, 2 min [1]: 0.27 ± 0.03 % dose/organ
Brain uptake, 2 min ([1]; listed as Peak B): 0.28 % dose/organ
Blood uptake, 60 min [1]: 1.89 ± 0.21 % dose/organ
Brain uptake, 60 min [1]: 0.12 ± 0.02 % dose/organ
Heart uptake, 60 min [1]: 0.19 ± 0.06 % dose/organ
Kidney uptake, 60 min [1]: 1.87 ± 0.80 % dose/organ
Liver uptake, 60 min [1]: 18.71 ± 2.54 % dose/organ
Lung uptake, 60 min [1]: 1.23 ± 0.89 % dose/organ
Muscle uptake, 60 min [1]: 8.60 ± 2.51 % dose/organ
Skin uptake, 60 min [1]: 4.11 ± 0.62 % dose/organ
Spleen uptake, 60 min [1]: 0.41 ± 0.24 % dose/organ
ST/CB ratio, 60 min (dopamine transporters [2]): 3.79

COC(=O)[C@H]1[C@@H](c2ccc(Cl)cc2)C[C@@H]2CC[C@H]1N2CCC[N+]12CC[S][99Tc-]13(=[O])[S]CC[N]3CC2 (single isomer, unassigned; peak b) [peak B of (2.6a)]
Blood uptake, 2 min [1]: 3.96 ± 0.70 % dose/organ
Brain uptake, 2 min [1]: 0.19 ± 0.041 % dose/organ
Heart uptake, 2 min [1]: 0.70 ± 0.21 % dose/organ
Kidney uptake, 2 min [1]: 2.03 ± 0.45 % dose/organ
Liver uptake, 2 min [1]: 19.56 ± 3.21 % dose/organ
Lung uptake, 2 min [1]: 19.16 ± 2.06 % dose/organ
Muscle uptake, 2 min [1]: 9.92 ± 1.04 % dose/organ
Skin uptake, 2 min [1]: 1.25 ± 0.17 % dose/organ
Spleen uptake, 2 min [1]: 0.42 ± 0.10 % dose/organ
Blood uptake, 30 min [1]: 1.82 ± 0.43 % dose/organ
Brain uptake, 30 min [1]: 0.094 ± 0.026 % dose/organ
Heart uptake, 30 min [1]: 0.24 ± 0.08 % dose/organ
Kidney uptake, 30 min [1]: 1.24 ± 0.18 % dose/organ
Liver uptake, 30 min [1]: 28.57 ± 2.94 % dose/organ
Lung uptake, 30 min [1]: 12.51 ± 1.46 % dose/organ
Muscle uptake, 30 min [1]: 8.09 ± 1.686 % dose/organ
Skin uptake, 30 min [1]: 3.25 ± 0.76 % dose/organ
Spleen uptake, 30 min [1]: 0.67 ± 0.17 % dose/organ

COC(=O)[C@H]1[C@@H](c2ccc(F)cc2)C[C@@H]2CC[C@H]1N2C [CFT (WIN35,428)]
Literature binding / localization / biodistribution, in words (dopamine transporters [3]): much higher binding affinity and selectivity to dopamine reuptake sites

CN1[C@H]2CC[C@@H]1[C@@H](C[N+]13CC[S][99Tc-]14(=[O])[S]CC[N]4CC3)[C@@H](c1ccc(Br)cc1)C2 (some centres unmarked) [Compound 1.20c]
Brain uptake, 2 min [1]: 0.41 ± 0.03 % dose/organ
Brain uptake, 60 min [1]: 0.18 ± 0.01 % dose/organ
Brain uptake and specific striatal uptake, in words (dopamine transporters [2]): high initial uptake and high specific retention in brain
ST/CB ratio, 60 min (dopamine transporters [2]): 2.82 and 2.82 ± 0.19

COC(=O)C1C(c2ccc(F)cc2)CC2CCC1N2CCCN(CC[S-])CC([O-])=NCC[S-].[O]=[99Tc+3] (centres unmarked) [Technepine]
Literature binding / localization / biodistribution, in words (dopamine transporters [3]): poor biodistribution
Literature binding / localization / biodistribution, in words (dopamine transporters [3]; listed as technepine): less favorable biological properties

COC(=O)[C@H]1[C@@H](c2ccc([123I])cc2)C[C@@H]2CC[C@H]1N2CCCF [[^123 I]-β-CIT-FP]
Time for reaching optimal uptake ratio / equilibrium (dopamine transporters [3]): less than one hour

COC(=O)[C@H]1[C@@H](OC(=O)c2ccccc2)C[C@@H]2CC[C@H]1N2C [cocaine]
Literature binding / localization / biodistribution, in words (dopamine transporters [3]): largely concentrated in the basal ganglia

O=C(CCCN1CCC(O)(c2ccc(Cl)cc2)CC1)c1ccc(F)cc1 [haloperidol, reference compound]
Effect of pretreatment on specific striatal uptake of tracer (dopamine transporter): no blocking effect was observed

COC(=O)[C@H]1[C@@H](c2ccc(I)cc2)C[C@@H]2CC[C@H]1N2C [β-CIT, N-methyl-2b-carbomethoxy-3b-(4-iodophenyl)tropane, reference compound]
Time for reaching optimal uptake ratio / equilibrium (dopamine transporters [3]): > 18 h
Literature binding / localization / biodistribution, in words (dopamine transporters [3]): much higher binding affinity and selectivity to dopamine reuptake sites
Effect of pretreatment on specific striatal uptake of tracer (dopamine transporter): could be blocked; also recorded: showed blocking of the specific uptake
Effect of pretreatment on specific striatal uptake of tracer (dopamine transporter; listed as RTI-55): could be blocked
